Measured values: PMC9090388, “Design, synthesis, biological evaluation and QSAR analysis of novel N-substituted benzimidazole derived carboxamides” (Journal of Enzyme Inhibition and Medicinal Chemistry, 2022)
Where “and” joins values, the source holds several entries; their conditions need not be identical. Equal values may be shown once.

Tests used:
[1] = Ferric reducing/antioxidant power (FRAP assay); assay type: biochemical; conditions: triplicate; – = not active in the FRAP assay
Description: The FRAP method was carried out according to previously described procedures with some modifications to be compatible with an assay on a 96-well microplate. All results were expressed as Fe^2+ equivalents (Fe^2+ µmol).

[2] = DPPH free radical scavenging (reducing activity of the stable radical DPPH); assay type: biochemical; conditions: DPPH 50 µM in absolute ethanol; – = did not show any DPPH activity
Description: The reducing activity of investigated systems was achieved by the DPPH method according to previously described procedures with modifications to assure the use in a 96-well microplate. Briefly, equal volumes of various concentrations of tested molecules (dissolved in DMSO) were added to the solution of DPPH (final concentration 50 µM in absolute ethanol). Ethanol and DMSO were used as control solutions in line with earlier reports.[27]

MCF-7 (breast carcinoma) = experiment: Antiproliferative activity in vitro, MTT, 72 h; assay type: cell-based; conditions: Homo sapiens, MCF7, concentration that causes 50% growth inhibition
Description: (§1) The experiments were performed on four human cell lines, including HCT 116 (colon carcinoma), H 460 (lung carcinoma), MCF-7 (breast carcinoma) and HEK 293 (human embryonic kidney cells), in line with previously published experimental procedures[10]^,[25]. Briefly, the cells were grown in DMEM medium with the addition of 10% foetal bovine serum (FBS), 2 mM L-glutamine, 100 U/mL penicillin and 100 µg/mL streptomycin, and cultured as monolayers at 37 °C in a humidified atmosphere with 5% CO2. Cells were seeded at 2 × 10^3 cells/well in a standard 96-well microtiter plates and left to attach for 24 h. Next day, a test compound was added in five serial 10-fold dilutions. The rate of cell growth was evaluated after 72 h of incubation with MTT reagent. The obtained results are expressed as IC50 values, calculated from the concentration-response curves using linear regression analysis by fitting the test concentrations that give PG values above and below the reference value (i.e. 50%). Each test was performed in quadruplicate in at least two individual experiments.

HCT116 (colon carcinoma) = experiment: Antiproliferative activity in vitro, MTT, 72 h; assay type: cell-based; conditions: Homo sapiens, HCT-116, 72 h, concentration that causes 50% growth inhibition
Description: as §1

H 460 (lung carcinoma) = experiment: Antiproliferative activity in vitro, MTT, 72 h; assay type: cell-based, human; conditions: for IC50: Homo sapiens, NCI-H460, 72 h, concentration that causes 50% growth inhibition, 72 h, MTT; for selectivity of antiproliferative activity among cell lines: H 460 versus HCT116, MCF-7, HEK 293
Description: as §1

[3] = tested on: HEK 293 (human embryonic kidney cells); experiment: Antiproliferative/cytotoxic activity in vitro on non-tumour cells, MTT, 72 h; assay type: cell-based; conditions: Homo sapiens, HEK293; non-tumour cell line; concentration that causes 50% growth inhibition; 72 h, MTT
Description: as §1

| SMILES | IC50 [2] | IC50 (MCF-7 (breast carcinoma)) [µM] | IC50 (HCT116 (colon carcinoma)) [µM] | IC50 (H 460 (lung carcinoma)) [µM] | FRAP [1] | IC50 [3] [µM] | selectivity of antiproliferative activity among cell lines (H 460 (lung carcinoma)) |
| --- | --- | --- | --- | --- | --- | --- | --- |
| Cn1c(NC(=O)c2ccccc2)nc2ccc(C#N)cc21 [Compound 32, N-(6-Cyano-1-methyl-1H-benzo[d]imidazol-2-yl)benzamide] |  |  |  |  | 160.27 ± 16.35 mmolFe^2+/mmolC |  |  |
| N#Cc1ccc2nc(NC(=O)c3ccccc3)n(-c3ccccc3)c2c1 [Compound 48, N-(6-Cyano-1-phenyl-1H-benzo[d]imidazol-2-yl)benzamide] |  |  |  |  | 138.98 ± 32.68 mmolFe^2+/mmolC |  |  |
| Cc1cc(C(C)(C)C)c(O)c(C(C)(C)C)c1 [BHT, butylated hydroxytoluene, reference compound] |  |  |  |  | 679.15 mmolFe^2+/mmolC |  |  |
| COc1cc([C@@H]2c3cc4c(cc3[C@@H](O[C@@H]3O[C@@H]5CO[C@@H](C)O[C@H]5[C@H](O)[C@H]3O)[C@H]3COC(=O)[C@H]23)OCO4)cc(OC)c1O [Etoposide, reference compound] |  | 1 ± 0.7 | 5 ± 2 | 0.1 ± 0.04 |  |  |  |
| COc1ccc(C(=O)Nc2nc3ccccc3[nH]2)c(OC)c1 [Compound 26, N-(1H-Benzo[d]imidazol-2-yl)-2,4-dimethoxybenzamide] | 41700 ± 1510 µM |  |  |  | 166.61 ± 9.51 mmolFe^2+/mmolC |  |  |
| COc1ccccc1C(=O)Nc1nc2ccccc2n1-c1ccccc1 [Compound 45, 2-Methoxy-N-(1-phenyl-1H-benzo[d]imidazol-2-yl)benzamide] | 8710 ± 340 µM |  |  |  |  |  |  |
| COc1ccc(C(=O)Nc2nc3ccccc3n2-c2ccccc2)c(OC)c1 [Compound 46, 2,4-Dimethoxy-N-(1-phenyl-1H-benzo[d]imidazol-2-yl)benzamide] | 8480 ± 710 µM |  |  |  |  |  |  |
| COc1cc(C(=O)Nc2nc3ccc(C#N)cc3n2C)cc(OC)c1OC [Compound 35, N-(6-Cyano-1-methyl-1H-benzo[d]imidazol-2-yl)-3,4,5-trimethoxybenzamide] |  | 5.5 ± 3.2 | 5.2 ± 4.2 | 3.9 ± 0.9 | 338.50 ± 21.56 mmolFe^2+/mmolC | 12.3 ± 1.5 |  |
| CC(C)Cn1c(NC(=O)c2ccccc2)nc2ccccc21 [Compound 36, N-(1-Isobutyl-1H-benzo[d]imidazol-2-yl)benzamide] | 4510 ± 20 µM | 2.7 ± 1.9 | 3.8 ± 0.9 | 5.1 ± 2.6 | 179.70 ± 23.42 mmolFe^2+/mmolC | 5.9 ± 2.4 |  |
| COc1cc(C(=O)Nc2nc3ccccc3[nH]2)cc(OC)c1OC [Compound 27, N-(1H-Benzo[d]imidazol-2-yl)-3,4,5-trimethoxybenzamide] | 6820 ± 410 µM | 32.8 ± 15.6 | 23.1 ± 15 | 17.6 ± 6.7 | 5.59 ± 0.62 mmolFe^2+/mmolC | 23.6 ± 4.4 |  |
| COc1ccc(C(=O)Nc2nc3ccc(C#N)cc3n2-c2ccccc2)c(OC)c1 [Compound 50, N-(6-Cyano-1-phenyl-1H-benzo[d]imidazol-2-yl)-2,4-dimethoxybenzamide] |  |  |  |  | 506.70 ± 7.46 mmolFe^2+/mmolC |  |  |
| COc1ccc(C(=O)Nc2nc3ccc(C#N)cc3n2CC(C)C)c(OC)c1 [Compound 42, N-(6-Cyano-1-isobutyl-1H-benzo[d]imidazol-2-yl)-2,4-dimethoxybenzamide] | 5350 ± 70 µM |  |  |  |  |  |  |
| O=C(Nc1nc2ccccc2n1-c1ccccc1)c1ccccc1 [Compound 44, N-(1-Phenyl-1H-benzo[d]imidazol-2-yl)benzamide] |  |  |  |  | 184.70 ± 3.22 mmolFe^2+/mmolC |  |  |

More lines, main results first:

| IC50 [2] | IC50 (MCF-7 (breast carcinoma)) [µM] | IC50 (HCT116 (colon carcinoma)) [µM] | IC50 (H 460 (lung carcinoma)) [µM] | SMILES | FRAP [1] | IC50 [3] [µM] | selectivity of antiproliferative activity among cell lines (H 460 (lung carcinoma)) |
| --- | --- | --- | --- | --- | --- | --- | --- |
| 4920 ± 130 µM | 4.6 ± 1.4 | 3.1 ± 0.7 | 1.7 ± 0.1 | COc1cc(C(=O)Nc2nc3ccccc3n2CC(C)C)cc(OC)c1OC [Compound 39, N-(1-Isobutyl-1H-benzo[d]imidazol-2-yl)-3,4,5-trimethoxybenzamide] | 217.20 ± 3.69 mmolFe^2+/mmolC | 2 ± 0.9 |  |
|  | 3.1 ± 1.7 | ~0.6 |  | COc1cc(C(=O)Nc2nc3ccc(C#N)cc3n2CC(C)C)cc(OC)c1OC [Compound 43, N-(6-Cyano-1-isobutyl-1H-benzo[d]imidazol-2-yl)-3,4,5-trimethoxybenzamide] | 243.30 ± 3.39 mmolFe^2+/mmolC | 4.7 ± 1 |  |
| 6040 ± 290 µM | 23.8 ± 12.4 | 18.1 ± 1.4 | 17.7 ± 0.8 | COc1cc(C(=O)Nc2nc3ccccc3n2C)cc(OC)c1OC [Compound 31, 3,4,5-Trimethoxy-N-(1-methyl-1H-benzo[d]imidazol-2-yl)benzamide] | 124.28 ± 1.23 mmolFe^2+/mmolC | 21.7 ± 9.4 |  |
| ~3780 µM and 3780 µM | 11.9 ± 7.5 | 18.7 ± 5.1 | 10.7 ± 2.3 | Cn1c(NC(=O)c2ccccc2)nc2ccccc21 [Compound 28, N-(1-Methyl-1H-benzo[d]imidazol-2-yl)benzamide] | 538.81 mmolFe^2+/mmolC and 358.81 ± 4.83 mmolFe^2+/mmolC | 29.5 ± 12.5 |  |
|  | 29.4 ± 19.4 | 30.1 ± 13.2 | 4.53 ± 7.3 | COc1cc(C(=O)Nc2nc3ccc(C#N)cc3n2-c2ccccc2)cc(OC)c1OC [Compound 51, N-(6-Cyano-1-phenyl-1H-benzo[d]imidazol-2-yl)-3,4,5-trimethoxybenzamide] | 132.56 ± 18.06 mmolFe^2+/mmolC | 61.1 ± 35.7 | selective activity against H 460 |
|  | 2.9 ± 1.3 | 1.6 ± 0.9 | 0.8 ± 1.5 | COc1cc(C(=O)Nc2nc3ccccc3n2-c2ccccc2)cc(OC)c1OC [Compound 47, 3,4,5-Trimethoxy-N-(1-pheny-1H-benzo[d]imidazol-2-yl)benzamide] | 236.90 ± 1.50 mmolFe^2+/mmolC | 5.3 ± 2.4 | selective activity against H 460 |
| 4580 ± 150 µM |  |  |  | COc1ccccc1C(=O)Nc1nc2ccc(C#N)cc2n1CC(C)C [Compound 41, N-(6-Cyano-1-isobutyl-1H-benzo[d]imidazol-2-yl)-2-methoxybenzamide] | 154.30 ± 5.67 mmolFe^2+/mmolC |  |  |
| 10550 ± 30 µM |  |  |  | COc1ccccc1C(=O)Nc1nc2ccccc2n1CC(C)C [Compound 37, N-(1-Isobutyl-1H-benzo[d]imidazol-2-yl)-2-methoxybenzamide] |  |  |  |
| 6050 ± 1030 µM |  |  |  | COc1ccccc1C(=O)Nc1nc2ccccc2n1C [Compound 29, 2-Methoxy-N-(1-methyl-1H-benzo[d]imidazol-2-yl)benzamide] | 110.16 ± 1.44 mmolFe^2+/mmolC |  |  |
| 75700 ± 6080 µM |  |  |  | COc1ccccc1C(=O)Nc1nc2ccccc2[nH]1 [Compound 25, N-(1H-Benzo[d]imidazol-2-yl)-2-methoxybenzamide] |  |  |  |
| 29900 ± 1300 µM |  |  |  | COc1ccccc1C(=O)Nc1nc2ccc(C#N)cc2n1-c1ccccc1 [Compound 49, N-(6-Cyano-1-phenyl-1H-benzo[d]imidazol-2-yl)-2-methoxybenzamide] | 221.31 ± 27.39 mmolFe^2+/mmolC |  |  |
| 49600 ± 18400 µM |  |  |  | COc1ccc(C(=O)Nc2nc3ccccc3n2C)c(OC)c1 [Compound 30, 2,4-Dimethoxy-N-(1-methyl-1H-benzo[d]imidazol-2-il)benzamide] |  |  |  |
| 26580 ± 20 µM |  |  |  | COc1ccc(C(=O)Nc2nc3ccccc3n2CC(C)C)c(OC)c1 [Compound 38, N-(1-Isobutyl-1H-benzo[d]imidazol-2-yl)-2,4-dimethoxybenzamide] | 5.80 ± 0.15 mmolFe^2+/mmolC |  |  |
